Where two headings read alike, the source gives them in different places.
How the values were obtained:
[1] = cited from earlier work
[2] = cited from earlier work; remark: listed apart in the source
[3] = ethanol in silicone rubber capsule, Schmidt et al.; cited from earlier work
[4] = Solubility and stability of BCNU in vehicles (statements); format: physicochemical
[5] = Release of BCNU from silicone balloons into water; format: physicochemical
Method: Into one balloon prepared as in Example 1 was injected 0.15 ml. of 1% ethanol containing 0.6 mg. of BCNU and into a second balloon 0.15 ml. of 10% ethanol containing 0.5 mg of BCNU.
Each balloon was placed in a scintillation vial containing 5 ml of water and shaken at 37° C. in an automatic shaker. At specified time intervals, the aqueous liquid was removed from the vials containing the balloons. The amount of BCNU dissolved in the water was determined by spectroscopic analysis (absorbance at 232 nm). The water in each scintillation vessel was replaced with 5 ml. of fresh water. […] Results for both ethanolic solutions were as in FIG. 2. (- - -).
BCNU (7.5 mg/0.15 ml sesame oil) was injected into a silicone balloon which was placed in a flask with 5 ml of distilled water and shaken in an automatic shaker at 37° C. The procedure of Example 3(a) was repeated for as many time as positive absorption at 232 nm was recorded. When the experiment had to be interrupted overnight, the dried silicone balloon containing BCNU in sesame oil was stored at -15° C.
BCNU in absolute ethanol solution (13 mg/0.15 ml, 20 mg/0.15 ml, and 60 mg/0.15 ml) was injected in each of three silicone balloons. Release of BCNU from the balloon was followed as in Example 3. Results of this experiment are shown in FIG. 3, in which (--. --. --.) represents data for the solution containing 13 mg of BCNU, (- - -) the solution containing 20 mg and (--) the solution containing 60 mg. A sharp drop in the BCNU release rate after 3-4 hours, indicated by the arrow in the Figure, is correlated with diffusion of all of the ETOH from the balloons.

[6] = Stability of BCNU in aqueous solution (absorbance at 232 nm); format: physicochemical
Excerpt: The decomposition of BCNU in water and in 1% aqueous ethanol was followed by measuring the characteristic BCNU absorbance maximum at 232 nm, using a Beckman DK-2A spectrophotometer. A second maximum that appeared at 190 nm and increased during decomposition was not a reliable indicator of the drug's breakdown.

E. coli = assay: Microbiological assay of BCNU: inhibition of E. coli in agar plates; format: cell-based
Method: BCNU activity was evaluated by placing a silicone balloon containing BCNU in 0.2 ml of ethanol in a gelled agar plate seeded with E. coli (10^6 colonies/ml). The balloon was covered with a layer of seeded agar. The culture was incubated overnight at 35° C. and the zone of inhibition was measured. The balloons were transferred daily to new plates and the procedure repeated as long as activity was detected. The diameters of the zones of inhibition were compared with a standard semilogarythmic plot obtained using known amount of BCNU absorbed in filter paper about the size of the balloons. […] In control experiments with balloons filled with 0.2 ml of ethanol no inhibition of E. coli was observed. After a single overnight incubation, all of the alcohol had diffused from the balloon.
The smaller zone was very clear, and probably totally free of bacterial growth. The larger one was distinct, but had some diffuse bacterial growth. […] The microbiological assay is a useful test of cytotoxic activity of the implants, but the results are only semiquantitative, owing to simultaneous decomposition and diffusion of BCNU.
A 10 mg sample of solid was placed in a 7-mm-diameter reservoir made of two silicone membranes (0.1 mm thick) separated by a silicone rubber ring spacer (1.0 mm wide×1.5 mm thick) and glued with silicone adhesive. The sandwich-type silicone device containing 10 mg of solid BCNU was imbedded in agar plates seeded with E. coli and incubated repeatedly as in Example 5(a).

## O=NN(CCCl)C(=O)NCCCl [BCNU, 1,3-bis-(2-chloroethyl)-1-nitrosourea]
[1]
  degradation in aqueous media: degrades rapidly in aqueous media
[2]; Montgomery et al., J. Med. Chem. 1967
  reported half-life of BCNU in water: 5.08 h
[2]; Schmidt et al., supra
  reported half-life of BCNU in water: 2.33 h
[2]; in water, of the order of
  Decomposition of BCNU in water: 140 to 305 min
[3]
  decrease in BCNU concentration in the dialysate: rapid decrease in BCNU concentration in the dialysate
[4]; absolute ethanol as solvent for BCNU
  solubility in absolute ethanol: excellent solvent for BCNU
[4]; sesame oil
  solubility in sesame oil: fairly soluble
  stability in sesame oil: relatively stable
[5]; 1% or 10% ethanol, 37° C.
  rate of BCNU release from silicone balloons into water: rapidly decreasing rate
[5]; 13, 20 and 60 mg/0.15 ml absolute ethanol
  BCNU release rate after alcohol depletion, comparison of the three balloons: about the same for the three balloons
[5]; BCNU in sesame oil
  depletion of BCNU from silicone microballoons: depleted rather rapidly
[5]; BCNU in sesame oil, 37° C.
  rate of BCNU release from silicone microballoons into water: variable rate
[5]; absolute ethanol
  BCNU remaining inside balloons after alcohol depletion: essentially pure BCNU remained inside the balloons
[5]; absolute ethanol, 13, 20 and 60 mg/0.15 ml, 37° C.
  time of sharp drop in the BCNU release rate: 3 to 4 h
[5]; absolute ethanol, after the alcohol has left
  rate of BCNU diffusion from balloon into water after alcohol depletion: relatively constant rate
[5]; balloon containing the largest amount (60 mg/0.15 ml absolute ethanol)
  duration of BCNU release: released it over the longest time
[6]; 1% ethanol, 1% ethanol solution, of the order of, read-out: Decomposition of BCNU in 1% ethanol solution
  half-life: ~4.1 h
[6]; 1% ethanol, 37° C., read-out: half-life of BCNU in 1% ethanol
  half-life: 4.1 h
[6]; water, 37° C., read-out: half-life of BCNU in water
  half-life: 3.83 h
E. coli; 10 mg solid BCNU versus 10 mg BCNU in 0.2 ml ethanol in balloon
  depletion of drug activity, solid BCNU in sandwich-type silicone device: depletion of drug activity similar to that obtained with 10 mg BCNU in 0.2 ml ethanol in a silicone balloon
E. coli; 30 and 40 mg BCNU in 0.2 ml ethanol
  activity in the seventh incubation: zero activity
E. coli; 30 and 40 mg BCNU in 0.2 ml ethanol, daily incubations at 35° C.
  activity in consecutive incubations: comparable activity for six consecutive incubations
E. coli; 30 or 40 mg BCNU in ethanol, silicone microballoons
  duration of inhibition of growth of E. coli cultures: 6 days
E. coli; BCNU in 0.2 ml ethanol, balloons, overnight 35° C.
  zones of inhibition: two concentric and distinct zones of inhibition
E. coli; BCNU in ethanol
  BCNU remaining inside balloons after first incubation in agar: essentially pure BCNU remains inside the balloons
E. coli; BCNU in ethanol, after first overnight incubation
  BCNU content of balloons after first night's incubation: ~100%
E. coli; ethanolic solutions in silicone microballoons
  inhibitory activity versus filter paper impregnated with known amounts of BCNU: unimpaired
